# From ChEMBL document CHEMBL1909294, “Translating clinical findings into knowledge in drug safety evaluation--drug induced liver injury prediction system (DILIps)” (PLoS Comput Biol, 2011)
# *1 amine or outer side, *2 acyl side, *3 side chain or, on linkers, in order; H or OH if unused. Where a SMILES comes first, the peptide text is derived from it. Bridges are numbered along the chain shown (N, C = ends). [ ]: non-standard residue; d: D form. The star is where a group is joined. ξ: configuration not given here. X2 = N=C1NCCC([C@H](N[*:1])C(=O)[*:2])N1; ΔAla(Z-3-ureido) = NC(=O)N/C=C(\N)C(=O)O; ξβ3hOrn = NCCCC(N)CC(=O)*; Dap = NC[C@H](N)C(=O)O
# Legend:
# [1] = test system: Hepatotoxicity;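 for HepSE bilirubinemia: bilirubinemia hepatic side effect score drawn from the DILIps training data, a prediction system for drug-induced liver injury; call rule not given here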;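 for HepSE cholecystitis: Cholecystitis-related hepatic side effect score drawn from the DILIps (drug-induced liver injury prediction) training data set; call rule not given here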;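 for HepSE cholelithiasis: hepatic side effect score for cholelithiasis, drawn from the DILIps training data for predicting drug-induced liver injury; call rule not given here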;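 for HepSE cirrhosis: cirrhosis hepatic side effect score taken from the DILIps (drug-induced liver injury prediction) training set; call rule not given here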;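 for HepSE elevated liver function tests: hepatic side effect score for raised liver function tests, as recorded in the DILIps training set used for predicting drug-induced liver injury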; for HepSE hepatic failure: call rule not given here;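 for HepSE hepatomegaly: hepatic side effect score for hepatomegaly, taken from the training set of the DILIps drug-induced liver injury prediction system; call rule not given here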
# [2] = test system: Hepatotoxicity; remark: listed apart in the source;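 for HepSE bilirubinemia: bilirubinemia hepatic side effect score drawn from the DILIps training data, a prediction system for drug-induced liver injury; call rule not given here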;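 for HepSE cholecystitis: Cholecystitis-related hepatic side effect score drawn from the DILIps (drug-induced liver injury prediction) training data set; call rule not given here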;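 for HepSE cholelithiasis: hepatic side effect score for cholelithiasis, drawn from the DILIps training data for predicting drug-induced liver injury; call rule not given here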;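 for HepSE cirrhosis: cirrhosis hepatic side effect score taken from the DILIps (drug-induced liver injury prediction) training set; call rule not given here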;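 for HepSE elevated liver function tests: hepatic side effect score for raised liver function tests, as recorded in the DILIps training set used for predicting drug-induced liver injury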; for HepSE hepatic failure: call rule not given here
# [3] = test system: Hepatotoxicity; remark: listed apart in the source;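 for HepSE bilirubinemia: bilirubinemia hepatic side effect score drawn from the DILIps training data, a prediction system for drug-induced liver injury; call rule not given here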;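 for HepSE cholecystitis: Cholecystitis-related hepatic side effect score drawn from the DILIps (drug-induced liver injury prediction) training data set; call rule not given here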;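 for HepSE cholelithiasis: hepatic side effect score for cholelithiasis, drawn from the DILIps training data for predicting drug-induced liver injury; call rule not given here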;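 for HepSE cirrhosis: cirrhosis hepatic side effect score taken from the DILIps (drug-induced liver injury prediction) training set; call rule not given here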;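 for HepSE elevated liver function tests: hepatic side effect score for raised liver function tests, as recorded in the DILIps training set used for predicting drug-induced liver injury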; for HepSE hepatic failure: call rule not given here
# [4] = test system: Hepatotoxicity; remark: listed apart in the source;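 for HepSE bilirubinemia: bilirubinemia hepatic side effect score drawn from the DILIps training data, a prediction system for drug-induced liver injury; call rule not given here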;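 for HepSE cholecystitis: Cholecystitis-related hepatic side effect score drawn from the DILIps (drug-induced liver injury prediction) training data set; call rule not given here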;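 for HepSE cholelithiasis: hepatic side effect score for cholelithiasis, drawn from the DILIps training data for predicting drug-induced liver injury; call rule not given here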;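 for HepSE cirrhosis: cirrhosis hepatic side effect score taken from the DILIps (drug-induced liver injury prediction) training set; call rule not given here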;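 for HepSE elevated liver function tests: hepatic side effect score for raised liver function tests, as recorded in the DILIps training set used for predicting drug-induced liver injury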; for HepSE hepatic failure: call rule not given here
# [5] = test system: Hepatotoxicity; remark: listed apart in the source; for HepSE hepatic failure: call rule not given here
# [6] = test system: Hepatotoxicity; remark: listed apart in the source; for HepSE hepatic failure: call rule not given here
# [7] = test system: Hepatotoxicity; remark: listed apart in the source
# [8] = test system: Hepatotoxicity; remark: listed apart in the source
# [9] = test system: Hepatotoxicity; remark: listed apart in the source
# [10] = test system: Hepatotoxicity; remark: listed apart in the source
# [11] = test system: Hepatotoxicity; remark: listed apart in the source
# [12] = test system: Hepatotoxicity; remark: listed apart in the source
# [13] = test system: Hepatotoxicity; remark: listed apart in the source
# [14] = test system: Hepatotoxicity; remark: listed apart in the source
Compound,HepSE_bilirubinemia [1],HepSE_cholecystitis [2],HepSE_cholelithiasis [3],HepSE_cirrhosis [4],HepSE_elevated liver function tests [5],HepSE_hepatic failure [6],HepSE_hepatic necrosis [7],HepSE_hepatitis [8],HepSE_hepatomegaly [9],HepSE_jaundice [10],HepSE_liver disease [11],HepSE_liver fatty [12],HepSE_liver function tests abnormal [13],HepSE_Combined Scores [14],further results
Cc1cc(C2CCCCC2)n(O)c(=O)c1 [CICLOPIROX],0,0,0,0,0,0,0,0,0,0,0,0,0,0,–
GENTAMICIN,0,0,0,0,0,0,0,0,1,0,0,0,0,1,–
CC(=O)O[C@H]1C[C@@H]2CC[C@@H]3[C@H](CC[C@@]4(C)[C@H]3C[C@H]([N+]3(C)CCCCC3)[C@@H]4OC(C)=O)[C@@]2(C)C[C@@H]1[N+]1(C)CCCCC1 [PANCURONIUM],–,–,–,–,–,–,–,–,–,–,–,–,–,–,HepSE_bilirubinemia ([1]; Liver): 0; HepSE_cholecystitis ([2]; Liver): 0; HepSE_cholelithiasis ([3]; Liver): 0; HepSE_cirrhosis ([4]; Liver): 0; HepSE_elevated liver function tests ([5]; Liver): 0; HepSE_hepatic failure ([6]; Liver): 0; HepSE_hepatic necrosis ([7]; Liver): 0; HepSE_hepatitis ([8]; Liver): 0; HepSE_hepatomegaly ([9]; Liver): 0; HepSE_jaundice ([10]; Liver): 0; HepSE_liver disease ([11]; Liver): 0; HepSE_liver fatty ([12]; Liver): 0; HepSE_liver function tests abnormal ([13]; Liver): 0; HepSE_Combined Scores ([14]; Liver): 0
CC(C(=O)O)c1cccc(C(=O)c2ccccc2)c1 (stereo not drawn) [KETOPROFEN],0,0,0,0,0,0,0,1,0,1,0,0,0,2,–
C[C@]12CCC(=O)C=C1CC[C@H]1[C@@H]3CC[C@](O)(C(=O)CO)[C@@]3(C)C[C@H](O)[C@@]12F [FLUDROCORTISONE],0,0,0,0,0,0,0,0,0,0,0,0,0,0,–
CCN(CC)CCNC(=O)c1cc(Cl)c(N)cc1OC [METOCLOPRAMIDE],0,0,0,0,0,0,0,0,0,1,0,0,0,1,–
C[C@@H]1NC(=O)[C@@H](N)CNC(=O)[C@H](C2CCNC(=N)N2)NC(=O)/C(=C/NC(N)=O)NC(=O)[C@H](CNC(=O)CC(N)CCCN)NC1=O.N=C1NCCC([C@@H]2NC(=O)/C(=C/NC(N)=O)NC(=O)[C@H](CNC(=O)CC(N)CCCN)NC(=O)[C@H](CO)NC(=O)[C@@H](N)CNC2=O)N1 (stereo partly drawn) [CAPREOMYCIN] (H-[Dap]S[Dap](ξβ3hOrn)[ΔAla(Z-3-ureido)][X2]; lactam 1-C),0,0,0,0,0,0,0,0,0,0,1,0,0,1,–
O=C(c1ccc(OCCN2CCCCC2)cc1)c1c(-c2ccc(O)cc2)sc2cc(O)ccc12 [RALOXIFENE],0,0,1,0,0,0,0,0,0,0,0,0,0,1,–
CCOC(=O)O[C@]1(C(=O)COC(=O)CC)CC[C@H]2[C@@H]3CCC4=CC(=O)C=C[C@]4(C)[C@H]3[C@@H](O)C[C@@]21C [PREDNICARBATE],0,0,0,0,0,0,0,0,0,0,0,0,0,0,–
CC[C@H]1OC(=O)[C@H](C)C(=O)[C@H](C)[C@@H](O[C@@H]2O[C@H](C)C[C@H](N(C)C)[C@H]2O)[C@](C)(OC)C[C@@H](C)C(=O)[C@H](C)[C@H]2N(CCCCn3cnc(-c4cccnc4)c3)C(=O)O[C@]12C [TELITHROMYCIN],–,–,–,–,–,–,–,–,–,–,–,–,–,–,HepSE_bilirubinemia ([1]; Liver): 0; HepSE_cholecystitis ([2]; Liver): 0; HepSE_cholelithiasis ([3]; Liver): 0; HepSE_cirrhosis ([4]; Liver): 0; HepSE_elevated liver function tests ([5]; Liver): 0; HepSE_hepatic failure ([6]; Liver): 1; HepSE_hepatic necrosis ([7]; Liver): 1; HepSE_hepatitis ([8]; Liver): 1; HepSE_hepatomegaly ([9]; Liver): 0; HepSE_jaundice ([10]; Liver): 1; HepSE_liver disease ([11]; Liver): 0; HepSE_liver fatty ([12]; Liver): 0; HepSE_liver function tests abnormal ([13]; Liver): 1; HepSE_Combined Scores ([14]; Liver): 5
NC(=O)C(c1ccccc1)(c1ccccc1)[C@@H]1CCN(CCc2ccc3c(c2)CCO3)C1 [DARIFENACIN],0,0,0,0,0,0,0,0,0,0,0,0,0,0,–
O=C1C(O)=C([C@H]2CC[C@H](c3ccc(Cl)cc3)CC2)C(=O)c2ccccc21 [ATOVAQUONE],0,0,0,0,0,1,0,1,0,0,0,0,0,2,–
